Results reported in ChEMBL document CHEMBL5550185, “Targeting hTERT Promoter G-Quadruplex DNA Structures with Small-Molecule Ligand to Downregulate hTERT Expression for Triple-Negative Breast Cancer Therapy” (J Med Chem, 2024).
Calls of active or inactive are those of the source. No cut-off for these calls is given here.

Tests used:
MDA-MB-231 [1] = test: Downregulation of Artemis transcription level in human MDA-MB-231 cells at 1 uM measured after 48 hrs by RNA-seq analysis; format: functional, cell-based
Quadruplex DNA [2] = test: Binding affinity to hTERT G4 DNA assessed as thermal stability by measuring change in melting temperature at 400 uM […]; format: nucleic-acid assay; settings: Homo sapiens
Quadruplex DNA [3] = test: Binding affinity to Telo21 G4 DNA (unknown origin) assessed as thermal stability by measuring change in melting temperature at 400 uM […]; format: nucleic-acid assay
Quadruplex DNA [4] = test: Binding affinity to Bcl-2 G4 DNA (unknown origin) assessed as change in enthalpy at 400 uM by ITC analysis; format: nucleic-acid assay
[5] = Upregulation of PLK4 gene expression in human MDA-MB-231 cells assessed as fold change at 1 uM measured after 48 hrs by RNA-seq analysis relative to control; format: functional
MDA-MB-231 [6] = test: Induction of mitochondrial dysfunction in human MDA-MB-231 cells assessed as downregulation of mitochondrial respiratory complex I-NDUFB8 expression incubated for 48 hrs by Western blot analysis; format: functional, cell-based; settings: dose 0-1.5 µM
MDA-MB-231 [7] = test: Induction of mitochondrial dysfunction in human MDA-MB-231 cells assessed as increase in mitochondrial ROS production at 0 to 1.5 uM incubated for 48 hrs by Hoechst33342 staining based microscopic analysis; format: functional, cell-based; settings: dose 0-1.5 µM
[8] = Toxicity in female Balb/c nude mouse xenografted with human MDA-MB-231 cells assessed as change in […] level at 2 to 5 mg/kg, iv administered via tail vein every 2 days for 16 days; format: organism-based; settings: in vivo, 384 h, dose 2-5 mg/kg, time 16 day
[9] = Upregulation of PCBP3 gene expression in human MDA-MB-231 cells assessed as fold change at 1 uM measured after 48 hrs by RNA-seq analysis relative to control; format: functional
[10] = Toxicity in female Balb/c nude mouse xenografted with human MDA-MB-231 cells assessed as signs of pain at 2 to 5 mg/kg, iv administered via tail vein every 2 days for 16 days; format: organism-based; settings: in vivo, 384 h, dose 2-5 mg/kg, time 16 day
[11] = Upregulation of FTH1 gene expression in human MDA-MB-231 cells assessed as fold change at 1 uM measured after 48 hrs by RNA-seq analysis relative to control; format: functional
MDA-MB-231 [12] = test: Antitumor activity against human MDA-MB-231 cells xenografted in iv dosed female Balb/c mouse assessed as nuclear fragmentation in tumor administered via tail vein every 2 days for 16 days by H and E staining based analysis; format: functional, organism-based; settings: dose 2-5 mg/kg, time 16.0 day
[13] = Toxicity in female Balb/c nude mouse xenografted with human MDA-MB-231 cells assessed as pathological changes in kidney at 2 to 5 mg/kg, iv administered via tail vein every 2 days for 16 days by H and E staining based analysis; format: organism-based; settings: in vivo, 384 h, dose 2-5 mg/kg, time 16 day
DNA [14] = test: Binding affinity to DNA in telomerase-positive live human MDA-MB-231 cells at 5 uM preincubated for 10 mins followed by washout and RNase A addition measured after 2 hrs by Hoechst 33342 staining based confocal microscopic analysis; format: cell-based
[15] = Upregulation of KLF2 gene expression in human MDA-MB-231 cells assessed as fold change at 1 uM measured after 48 hrs by RNA-seq analysis relative to control; format: functional
[16] = Selectivity ratio of binding affinity to human TERT G4 DNA to binding affinity to Ckit-2 G4 DNA (unknown origin)
MDA-MB-231 [17] = test: Activation of apoptosis in human MDA-MB-231 cells assessed as upregulation of BAX protein expression measured after 48 hrs by Western blot analysis; format: functional, cell-based; settings: dose 0-1.5 µM
DNA [18] = test: Binding affinity to Dt21 ssDNA (unknown origin) assessed as thermal stability by measuring change in melting temperature at 400 uM […]; format: nucleic-acid assay
A549 = test: Cytotoxicity against telomerase-positive human A549 cells assessed as inhibition of cell growth incubated for 48 hrs by MTT assay; format: functional, cell-based; settings: A549, 48 h
Quadruplex DNA [19] = test: Binding affinity to hTERT G4 DNA assessed as change in enthalpy at 400 uM by ITC analysis; format: nucleic-acid assay; settings: Homo sapiens
[20] = Upregulation of TGFB3 gene expression in human MDA-MB-231 cells assessed as fold change at 1 uM measured after 48 hrs by RNA-seq analysis relative to control; format: functional
[21] = Toxicity in female Balb/c nude mouse xenografted with human MDA-MB-231 cells assessed as change in RBC count at 2 to 5 mg/kg, iv administered via tail vein every 2 days for 16 days; format: organism-based, Erythrocyte; settings: in vivo, 384 h, dose 2-5 mg/kg, time 16 day
MDA-MB-231 [22] = test: Induction of ferroptosis in human MDA-MB-231 cells assessed as reduction in GPX4 protein expression at 0 to 1.5 uM measured after 48 hrs by Western blot analysis; format: functional, cell-based; settings: dose 0-1.5 µM
U2OS = test: Cytotoxicity against alternative lengthening of telomere-positive human U2OS cells assessed as inhibition of cell growth incubated for 48 hrs by MTT assay; format: functional, cell-based
[23] = Toxicity in female Balb/c nude mouse xenografted with human MDA-MB-231 cells assessed as change in uric acid level at 2 to 5 mg/kg, iv administered via tail vein every 2 days for 16 days; format: organism-based; settings: in vivo, 384 h, dose 2-5 mg/kg, time 16 day
Quadruplex DNA [24] = test: Binding affinity to Bcl-2 G4 DNA (unknown origin) assessed as thermal stability by measuring change in melting temperature at 400 uM […]; format: nucleic-acid assay
Homo sapiens = species on record: Homo sapiens; test: Binding affinity to antisense i-hTERT DNA assessed as change in gibbs free energy at 400 uM by ITC analysis
DNA [25] = test: Binding affinity to DNA in telomerase-positive live human MDA-MB-231 cells assessed as reduction in fluorescence at 5 uM preincubated for 10 mins followed by washout and DNase I addition measured after 2 hrs by Hoechst 33342 staining based confocal microscopic analysis; format: cell-based
[26] = Selectivity ratio of binding affinity to human TERT G4 DNA to binding affinity to 4a4t duplex DNA (unknown origin)
[27] = Upregulation of IL-1A gene expression in human MDA-MB-231 cells assessed as fold change at 1 uM measured after 48 hrs by RNA-seq analysis relative to control; format: functional
[28] = Selectivity ratio of binding affinity to human TERT G4 DNA to binding affinity to Bcl-2 G4 DNA (unknown origin)

SMILES: C[n+]1c(/C=C/c2c[nH]c3ccccc23)cc(/C=C2\Sc3ccccc3N2CCCN2CCC(C(F)(F)F)CC2)c2ccccc21.[I-]
- Activity (MDA-MB-231 [1]): Active
- ΔTm (Quadruplex DNA [2]): 11.7 °C
- ΔTm (Quadruplex DNA [3]): 8.85 °C
- deltaH (Quadruplex DNA [4]): -2.34 kcal/mol
- fold change (FC) [5]: >2
- Activity (MDA-MB-231 [6]): Dose-Dependent Effect
- Activity (MDA-MB-231 [7]): Active
- Activity [8]: Non-Toxic
- fold change (FC) [9]: >2
- Activity [10]: Non-Toxic
- fold change (FC) [11]: >2
- Activity (MDA-MB-231 [12]): Dose-Dependent Effect
- Activity [13]: Non-Toxic
- Activity (DNA [14]): Active
- fold change (FC) [15]: >2
- Selectivity ratio [16]: 2
- Activity (MDA-MB-231 [17]): Dose-Dependent Effect
- ΔTm (DNA [18]): -2.51 °C
- IC50 (A549): 2100 nM
- deltaH (Quadruplex DNA [19]): -2.72 kcal/mol
- fold change (FC) [20]: >2
- Activity [21]: Non-Toxic
- Activity (MDA-MB-231 [22]): Active
- IC50 (U2OS): 3900 nM
- Activity [23]: Non-Toxic
- ΔTm (Quadruplex DNA [24]): 6.4 °C
- deltaG (Homo sapiens): -7.58 kcal/mol
- Activity (DNA [25]): Active
- Selectivity ratio [26]: 3
- fold change (FC) [27]: >2
- Selectivity ratio [28]: 2
